{"source": "patent US8871735B2", "about": "“Methods and compositions for providing cardiac protection” (University of Medicine and Dentistry of New Jersey, priority 2008, dated 2014)", "key": {"[1]": {"system": "AC", "assay": "cAMP production in membrane preparations from mouse heart", "assay_type": "biochemical", "conditions": "50 μM forskolin, 10 μM drug", "description": "Such membrane permeability was examined using whole cell, which is addressed in FIG. 11b). cAMP production was measured with 50 μM forskolin in the presence or absence of 10 μM of the indicated drugs. n=2. (b) cAMP accumulation is shown in H9C2 cells. […] Ara-Ade (Adenine 9-β-D-arabinofuranoside) is an anti-herpes simplex drug. Fludarabine ((+)-2-Fluoro-9-(5-O-phosphono-β-D-arabinofuranosyl)-9H-purin-6-amine) and Cladribine (2-chloro-2′-deoxyadenosine) are anti-cancer drugs, Adefovir (Bis(2,2-dimethylpropanoyloxymethyl)[2-(6-amino-9H-purin-9-yl)ethoxymethyl]phosphonate) and Zidovudine are anti-HIV drugs. Zidovudine-TP is a metabolite of zidovudine which inhibits virus replication. TP; triphosphate. 3-Deazaadenosine, Formycin A (7-Amino-3-(β-D-ribofuranosyl)-1H-pyrazolo[4,3-d]pyrimidine), 2-Far (2-Fluoroadenosine), formycin A ((2S,3R,4S,5R)-2-(7-amino-2H-pyrazolo[5,4-e]pyramidin-3-yl-5-(hydroxymeth-yl)oxolane-3,4-diol), 2-FD (2-Fluoro-2′-deoxyadenosine) and 2′5′ ddAdo (2′5′-dideoxyadenosine) are experimental drugs.\nVarious compounds with adenine-like backbone structure were screened because this structure is essential for both AC inhibition and plasma membrane permeability. Drug effects on AC activity was examined by using membrane preparations from mouse heart and striatum, in which AC5 provides 20% and 80% of total AC activity, respectively. […]"}, "[2]": {"system": "H9C2 cells", "assay": "cAMP accumulation in H9C2 cells", "assay_type": "cell-based", "conditions": "5 μM ISO, 3 minutes, 10 μM drug", "description": "[…] Fludarabine ((+)-2-Fluoro-9-(5-O-phosphono-β-D-arabinofuranosyl)-9H-purin-6-amine) and Cladribine (2-chloro-2′-deoxyadenosine) are anti-cancer drugs, Adefovir (Bis(2,2-dimethylpropanoyloxymethyl)[2-(6-amino-9H-purin-9-yl)ethoxymethyl]phosphonate) and Zidovudine are anti-HIV drugs. Zidovudine-TP is a metabolite of zidovudine which inhibits virus replication. TP; triphosphate. 3-Deazaadenosine, Formycin A (7-Amino-3-(β-D-ribofuranosyl)-1H-pyrazolo[4,3-d]pyrimidine), 2-Far (2-Fluoroadenosine), formycin A ((2S,3R,4S,5R)-2-(7-amino-2H-pyrazolo[5,4-e]pyramidin-3-yl-5-(hydroxymeth-yl)oxolane-3,4-diol), 2-FD (2-Fluoro-2′-deoxyadenosine) and 2′5′ ddAdo (2′5′-dideoxyadenosine) are experimental drugs.\n(§1) Mice were anesthetized with 2.5% tribromoethanol (0.010 to 0.015 mL per gram of body weight) injected intraperitoneally, and echocardiography was performed with ultrasonography (ACUSON Sequoia C256, Siemens Medical Solutions, Malvern, Pa.). For acute injection of isoproterenol, forskolin and milrinon, a PE-10 catheter was inserted into the right jugular vein, and drugs were injected at the rate of 1 μl/s. cAMP accumulation assay in H9C2 cells, a cardiac myoblast cell line, was examined as previously described."}, "[3]": {"system": "C57Bl/6 mice motor function", "assay": "Rotarod performance test and pole test", "assay_type": "in vivo, mouse", "conditions": "Ara-Ade by mini-osmotic pump; MPTP 30 mg/kg i.p. daily for 5 days", "description": "In C57Bl/6 mice, Ara-Ade was chronically infused with an osmotic mini-pump at the indicated doses for 5 days. a) Each mouse was placed on a rod subjected to evaluate Rotarod performance. Mice were left for 1 min on the rod for habituation. The rod rotated gradually increasing from 4 to 40 rpm over the course of 5 min, and the time that mice could stay without failing was recorded. Five trials were conducted for each individual 10-25 min apart. As a positive control, 1-methyl 4-phenyl 1,2,3,6-tetrahydropyridine (MPTP) was intraperitoneally injected for the indicated dose for 5 days. *, p<0.01 relative to vehicle. #, p<0.05 relative to vehicle. n=6-7. b) To evaluate bradykinesia, a pole test was performed. Mice were placed head upward on the top of a rough surfaced pole that was wrapped with gauze to prevent slipping. The time until the mouse turned completely downward (open bars, TTURN) and the time until it climbed down to the floor (closed bars, TLA) were measured.\nFour days after the implantation, Rotarod performance test and pole test were examined as previously described. For MPTP injection (1-methyl 4-phenyl 1,2,3,6-tetrahydropyridine), mice were injected intraperitoneally (i.p.) with 0.1 mL of PBS or MPTP dissolved in PBS at 24-hour intervals for 5 days. The daily dose of MPTP was 30 mg/kg. […]"}, "[4]": {"system": "cardiac myocytes", "conditions": "cited from earlier work"}, "[5]": {"system": "AC5", "conditions": "cited from earlier work"}, "[6]": {"system": "cardiac myocytes", "assay": "ISO-induced cell contraction in cultured cardiac myocytes", "assay_type": "cell-based", "conditions": "10 μM"}, "[7]": {"system": "cardiac myocytes", "assay": "ISO-induced apoptosis in cultured cardiac myocytes (DNA fragmentation ELISA)", "assay_type": "cell-based", "conditions": "100 μM ISO, 48 h", "method": "Cultured cardiac myocytes were incubated with 100 μM ISO in the presence or absence of AC5 inhibitors at the indicated concentrations for 48 h."}, "[8]": {"target": "AC2 (UniProt P26769)", "assay": "AC inhibition, recombinant AC proteins: AC2", "assay_type": "biochemical"}, "[9]": {"target": "T1, AC3 (Rattus norvegicus, UniProt P21932)", "T1 construct": "made in house", "T1 sequence (P21932 whole entry)": "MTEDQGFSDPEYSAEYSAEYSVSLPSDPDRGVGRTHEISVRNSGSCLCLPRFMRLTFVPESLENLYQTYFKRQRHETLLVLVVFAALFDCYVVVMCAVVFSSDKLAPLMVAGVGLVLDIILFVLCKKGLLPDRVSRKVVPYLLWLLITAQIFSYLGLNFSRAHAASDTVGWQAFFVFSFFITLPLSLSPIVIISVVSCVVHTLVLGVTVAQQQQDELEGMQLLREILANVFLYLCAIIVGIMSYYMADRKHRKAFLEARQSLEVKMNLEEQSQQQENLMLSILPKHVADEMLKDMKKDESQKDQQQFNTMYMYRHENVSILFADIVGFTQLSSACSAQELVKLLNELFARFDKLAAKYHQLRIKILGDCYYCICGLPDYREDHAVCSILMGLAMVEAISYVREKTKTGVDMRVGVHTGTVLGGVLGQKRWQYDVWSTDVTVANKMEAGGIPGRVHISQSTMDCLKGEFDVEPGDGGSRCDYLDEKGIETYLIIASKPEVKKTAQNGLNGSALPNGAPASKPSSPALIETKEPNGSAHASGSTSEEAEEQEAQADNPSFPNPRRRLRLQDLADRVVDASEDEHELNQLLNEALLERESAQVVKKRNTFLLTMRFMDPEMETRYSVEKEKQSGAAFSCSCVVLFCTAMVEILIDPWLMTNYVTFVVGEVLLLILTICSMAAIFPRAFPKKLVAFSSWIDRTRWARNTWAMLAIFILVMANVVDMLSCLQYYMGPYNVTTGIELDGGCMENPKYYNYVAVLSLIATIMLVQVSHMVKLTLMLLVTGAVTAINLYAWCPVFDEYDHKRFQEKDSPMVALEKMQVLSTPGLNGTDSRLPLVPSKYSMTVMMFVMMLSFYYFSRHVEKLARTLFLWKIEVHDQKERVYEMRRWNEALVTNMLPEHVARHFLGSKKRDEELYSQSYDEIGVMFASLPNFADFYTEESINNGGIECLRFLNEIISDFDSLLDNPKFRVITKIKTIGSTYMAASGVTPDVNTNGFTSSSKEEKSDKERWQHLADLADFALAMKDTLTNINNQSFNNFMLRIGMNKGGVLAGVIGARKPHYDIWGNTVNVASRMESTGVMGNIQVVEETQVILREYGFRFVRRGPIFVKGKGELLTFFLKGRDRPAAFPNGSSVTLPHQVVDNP", "assay": "AC inhibition, recombinant AC proteins: AC3", "assay_type": "biochemical"}, "[10]": {"target": "T2, AC5 (UniProt P30803)", "T2 construct": "IC50 AC5; other: recombinant AC proteins; other: THFA: in the presence of Gs-α/GTPαS/forskolin", "assay": "AC inhibition, recombinant AC proteins: AC5", "assay_type": "biochemical", "conditions": "recombinant AC proteins; read-out: IC50 AC5"}, "[11]": {"system": "AC5", "assay": "AC inhibition, recombinant AC proteins: AC5", "assay_type": "biochemical"}, "[12]": {"system": "cardiac myocytes", "assay": "ISO-stimulated cAMP accumulation in cultured cardiac myocytes", "assay_type": "cell-based, mouse", "conditions": "10 μM compound"}, "[13]": {"system": "AC2", "conditions": "previously noted; cited from earlier work"}, "[14]": {"system": "C57Bl/6 mice, chronic ISO infusion", "assay": "Chronic ISO infusion heart failure model", "assay_type": "in vivo, mouse", "conditions": "for ISO-induced decrease in LVEF (and FS): ISO 60 mg/kg/d 7 days, Ara-Ade 20 and 100 mg/kg/day, 2′5′ ddAdo 20 mg/kg/day", "description": "(§2) ISO with or without AC5 inhibitors were chronically infused with osmotic mini-pump implanted subcutaneously at indicated doses for 1 week in c57Bl/6 mice. Mice were then subjected to echocardiography (a) and the hearts were removed and subjected to pathological examinations such as myocardial apoptosis (b) and fibrosis (c). n=4-8.\n(§3) In C57Bl/6 mice, ISO with or without AC5 inhibitors or metoprolol were chronically infused with an osmotic mini-pump at the indicated doses for 1 week. Mice were then subjected to echocardiography (a) and heart tissue were subjected to a myocardial apoptosis assay (b). *, p<0.01 vs vehicle. #, p<0.05 vs vehicle. .dagger., p<0.01 vs ISO. .dagger-dbl., p<0.05 vs ISO. n=4-15. […] Comparisons between multiple groups were made using ANOVA with post-hoc tests.\nTenofovir diphosphate (PMPA-PP), zidovudine monophosphate (MP), zidovudine diphosphate (PP), zidovudine triphosphate (TP), famciclovir penciclovir and valaciclovir were purchased from Moravek. Formycin A (FMA) and Formycin B (FMB) were purchased from Berry and Associates. All other reagents were from Sigma unless specified. Long-term infusion of isoproterenol (Sigma, St. Louis, Mo.) was performed for 7 days at a dose of 60 mg/kg/d with or without AC5 inhibitors by using a miniosmotic pump (ALZET model 2001, DURECT Corp, Cupertino, Calif.). Control mice received vehicle in pumps. Pumps were removed 24 hours before biochemical and physiological studies. Experiments were performed in 3- to 5-month-old male C57Bl/6, and in AC5Tg transgenic mice. This study was approved by the Animal Care and Use Committee at New Jersey Medical School.\nas §1"}, "[15]": {"system": "mice", "assay": "Basal cardiac function (echocardiography) under chronic drug infusion alone", "assay_type": "in vivo, mouse", "conditions": "chronic infusion of drug alone (3 days to 1 week)", "description": "as §2, §3\nas §1, with “described. […]” for “described.”"}, "[16]": {"system": "patients", "conditions": "BHAT; cited from earlier work"}, "[17]": {"system": "isolated perfused rat hearts", "conditions": "cited from earlier work"}}}
{"smiles": "Nc1nccc2c1ncn2[C@@H]1O[C@H](CO)[C@@H](O)[C@H]1O", "note": "[3-deazaadenosine, 3-Deazaadenosine]", "values": [{"measurement": "ratio of inhibition between the heart membrane and the striatum membrane", "setting": "[1]", "value": "less than one"}, {"measurement": "inhibition of cAMP accumulation in H9C2 cells", "setting": "[2]", "value": "little inhibition"}]}
{"smiles": "CN1CC=C(c2ccccc2)CC1", "note": "[MPTP, 1-methyl 4-phenyl 1,2,3,6-tetrahydropyridine]", "values": [{"measurement": "Rotarod and pole test performance", "setting": "[3]", "value": "significantly impaired"}]}
{"smiles": "Nc1ncc2c(n1)CC(c1ccco1)CC2=O", "note": "(stereo not drawn) [NKY80, 2-amino-7-(2-furanyl)-7,8-dihydro-5(6H)-quinazoline]", "values": [{"measurement": "inhibition of cAMP accumulation in cultured cardiac myocytes", "setting": "[4]", "value": "did not inhibit cAMP accumulation"}, {"measurement": "inhibition of purified AC5 protein in vitro", "setting": "[5]", "value": "moderate inhibition"}]}
{"smiles": "Nc1ncnc2c1ncn2C1CCC(C(=O)NO)C1", "note": "(stereo not drawn) [PMC-6]", "values": [{"measurement": "inhibition of ISO-induced cell contraction", "setting": "[6]", "value": "did not inhibit"}, {"measurement": "ISO-induced apoptosis in cultured cardiac myocytes", "setting": "[7]", "value": "abolished"}, {"measurement": "IC50", "setting": "[8]", "value": 65.3, "unit": "µM"}, {"measurement": "IC50", "setting": "[9]", "value": 11.1, "unit": "µM"}, {"measurement": "IC50", "setting": "[10]", "value": 0.32, "unit": "µM"}, {"measurement": "Selectivity ratio for AC5, AC5/AC2", "setting": "[11]; ratio of IC50 for AC5 to that for AC2", "value": 0.0049}, {"measurement": "Selectivity ratio for AC5, AC5/AC3", "setting": "[11]; ratio of IC50 for AC5 to that for AC3", "value": 0.029}, {"measurement": "decrease in ISO-induced cAMP production / accumulation in cultured cardiac myocytes", "setting": "[12]", "value": 50, "unit": "%"}]}
{"smiles": "Nc1ncnc2c1ncn2C1CCCO1", "note": "(stereo not drawn) [THFA, 9-(tetrahydro-2-furyl)adenine]", "values": [{"measurement": "selectivity ratio between AC6 and AC2", "setting": "[13]", "value": 1.8}, {"measurement": "selectivity ratio between AC5 and AC2", "setting": "[11]", "value": 130}]}
{"smiles": "COCCc1ccc(OCC(O)CNC(C)C)cc1", "note": "(stereo not drawn) [metoprolol]", "values": [{"measurement": "ISO-induced decrease in LVEF (and FS)", "setting": "[14]", "value": "attenuated ISO-induced cardiac dysfunction"}, {"measurement": "ISO-induced decrease in LVEF (and FS)", "setting": "[14]; listed as Metoprolol", "value": "rescued ISO-induced LVEF decrease"}, {"measurement": "HR decreased by chronic ISO", "setting": "[14]; chronic ISO infusion", "value": "rescue decreased HR"}, {"measurement": "ISO-induced myocardial apoptosis in vivo", "setting": "[14]; chronic ISO infusion", "value": "to a lesser degree than Ara-Ade"}, {"measurement": "ISO-induced wall thickening (DESP, DPW)", "setting": "[14]; chronic ISO infusion", "value": "did not show significant increase"}, {"measurement": "basal LVEF", "setting": "[15]", "value": "decreased"}]}
{"smiles": "CC(C)NCC(O)COc1cccc2ccccc12", "note": "(stereo not drawn) [propranolol]", "values": [{"measurement": "decrease of sudden cardiac death, patients with a history of HF", "setting": "[16]", "value": 47, "unit": "%"}, {"measurement": "decrease of sudden cardiac death, patients with a history of MI", "setting": "[16]", "value": 28, "unit": "%"}, {"measurement": "arrhythmia in low flow perfusion / NE model", "setting": "[17]", "value": "effectively reduced arrhythmia"}]}
